Test results from article PMC7993260 (Clinical and Translational Science, 2020).
Like-named read-outs stand apart in the source and are kept apart here.

How the values were obtained:
OATP2B1 = conditions: in vitro; cited from earlier work
OATP1B1 = conditions: in vitro; cited from earlier work
OATP1A2 = conditions: in vitro; cited from earlier work
[1] = format: in vivo, human; conditions: for A e, amount excreted unchanged into urine over 24 hours / CL renal / AUC(0-t) / AUC(0-inf): geometric mean; for CL renal: plasma and urine, CLrenal; for AUC(0-inf): AUC0–∞
[2] = cited from earlier work
[3] = Acute hemodynamic response to lisinopril; format: in vivo, human
PEPT1 = conditions: Caco-2 cells; cited from earlier work
[4] = stated as similar for lisinopril and nadolol

Molecule: O=C(O[C@@H]1Cc2c(O)cc(O)cc2O[C@@H]1c1cc(O)c(O)c(O)c1)c1cc(O)c(O)c(O)c1 [EGCG, (–)‐epigallocatechin gallate]
- inhibition of OATP2B1 activity (OATP2B1): have been shown to inhibit
- inhibition of OATP1B1 activity (OATP1B1): have been shown to inhibit
- inhibition of OATP1A2 activity (OATP1A2): have been shown to inhibit

Molecule: NCCCC[C@H](N[C@@H](CCc1ccccc1)C(=O)O)C(=O)N1CCC[C@H]1C(=O)O [lisinopril]
- decrease in AUC0-24 in the GTE phase compared with control phase ([1]; GTE vs control, P < 0.001): 69%
- decrease in AUC0–∞ in the GTE phase compared with control phase ([1]; GTE vs control, P < 0.001): 67%
- decrease in C max in the GTE phase compared with control phase ([1]; GTE vs control, P < 0.001): 71%
- A e, amount excreted unchanged into urine over 24 hours ([1]; GTE): 0.54 mg
- CL renal ([1]; both, human, po, 10 mg, GTE): 56.9 mL/min
- CL renal ([1]; both, human, po, 10 mg, control (water)): 57.7 mL/min
- Tmax ([1]; both, human, plasma, po, 10 mg): 6 h
- AUC(0-t) ([1]; both, human, plasma, po, 10 mg, AUC0–24, GTE): 157 ng·h/mL
- AUC(0-t) ([1]; both, human, plasma, po, 10 mg, AUC0–24, control (water)): 504 ng·h/mL
- AUC(0-inf) ([1]; both, human, plasma, po, 10 mg, GTE): 186 ng·h/mL
- AUC(0-inf) ([1]; both, human, plasma, po, 10 mg, control (water)): 554 ng·h/mL
- A e, amount excreted unchanged into urine over 24 hours ([1]; control (water)): 1.75 mg
- A e GMR (GTE/control) ([1]; geometric mean ratio GTE/control): 0.307
- adverse events ([1]; ten subjects who completed the study, both phases): no adverse events
- oral bioavailability [2]: 29%
- oral bioavailability [2, 4]: ca. 30%
- DBP ([3]; GTE phase, 6 hours after 10 mg oral lisinopril, mean ± SD, baseline 68 ± 10 mmHg): 55 ± 4 mmHg
- mean maximum decrease of DBP from baseline ([3]; both phases, at 6 hours after the administration): about 20%
- SBP and PR, control vs GTE phases ([3]; single oral dose 10 mg lisinopril): no differences

Molecule: CC(C)(C)NCC(O)COc1cccc2c1CC(O)C(O)C2 (stereo not drawn) [nadolol]
- oral bioavailability [2, 4]: ca. 30%

Molecule: (–)‐epicatechin gallate
- inhibition of uptake transport of glycyl-sarcosine, a typical substrate of PEPT1 (PEPT1): not inhibiting
- inhibition of OATP2B1 activity (OATP2B1): have been shown to inhibit
- inhibition of OATP1B1 activity (OATP1B1): have been shown to inhibit
- inhibition of OATP1A2 activity (OATP1A2): have been shown to inhibit
